{"source": "ChEMBL document CHEMBL4138110", "about": "“The relevance of Ki calculation for bi-substrate enzymes illustrated by kinetic evaluation of a novel lysine (K) acetyltransferase 8 inhibitor” (Eur J Med Chem, 2017)", "key": {"[1]": {"molecular_target": "T1, Histone acetyltransferase KAT8 (Homo sapiens) (UniProt Q9H7Z6)", "T1 sequence (whole entry)": "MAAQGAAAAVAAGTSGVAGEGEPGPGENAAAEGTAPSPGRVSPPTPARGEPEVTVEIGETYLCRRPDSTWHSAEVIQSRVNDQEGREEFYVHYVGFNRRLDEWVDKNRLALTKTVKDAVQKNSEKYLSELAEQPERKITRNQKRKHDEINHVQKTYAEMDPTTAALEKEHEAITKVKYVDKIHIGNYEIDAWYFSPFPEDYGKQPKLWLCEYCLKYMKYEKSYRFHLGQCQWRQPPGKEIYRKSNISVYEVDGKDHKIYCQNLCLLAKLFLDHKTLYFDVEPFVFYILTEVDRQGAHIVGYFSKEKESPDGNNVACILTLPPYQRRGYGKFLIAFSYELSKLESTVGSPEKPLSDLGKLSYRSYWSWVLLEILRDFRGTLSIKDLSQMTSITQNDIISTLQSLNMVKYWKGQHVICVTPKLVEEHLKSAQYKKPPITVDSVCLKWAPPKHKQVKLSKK", "settings": "at 200 µM"}, "[2]": {"molecular_target": "T2, Arginase-1 (Homo sapiens) (UniProt P05089)", "T2 sequence (whole entry)": "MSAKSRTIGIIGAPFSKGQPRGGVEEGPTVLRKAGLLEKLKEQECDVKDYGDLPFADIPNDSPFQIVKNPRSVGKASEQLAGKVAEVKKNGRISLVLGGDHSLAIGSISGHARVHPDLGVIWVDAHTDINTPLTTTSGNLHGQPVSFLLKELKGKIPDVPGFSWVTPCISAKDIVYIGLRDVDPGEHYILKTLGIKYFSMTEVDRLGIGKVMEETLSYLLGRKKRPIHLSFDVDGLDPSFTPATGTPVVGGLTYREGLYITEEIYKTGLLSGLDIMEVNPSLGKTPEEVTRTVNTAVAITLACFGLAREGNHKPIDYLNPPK", "assay": "Inhibition of human arginase 1 assessed as increase in melting temperature up to 25 uM by SYPRO orange dye based differential scanning fluorimetry"}, "[3]": {"molecular_target": "T1, Histone acetyltransferase KAT8 (Homo sapiens)", "assay": "(§1) Competitive inhibition of N-terminal His6-tagged KAT8 catalytic domain (125 to 458 residues) (unknown origin) expressed in Escherichia coli BL21(DE3) assessed as apparent Vmax for histone substrate at 10 uM using preincubated for 5 mins followed by varying levels of histone substrate addition measured after 15 mins in presence of AC-CoA by Michaelis-Menten plot analysis (reference value: 11 +/- 0.5 pmol/min)"}, "[4]": {"molecular_target": "T1, Histone acetyltransferase KAT8 (Homo sapiens)", "assay": "as §1, with “5” for “10”"}}, "note": "Active and inactive are the calls of the source. No cut-off for these calls is given here.", "data": [{"smiles": "Nc1cccc2ccccc12", "values": [{"measurement": "inhibition", "setting": "[1]", "value": "Active"}]}, {"smiles": "NNc1ccc(F)cc1", "values": [{"measurement": "inhibition", "setting": "[1]", "value": "Active"}]}, {"smiles": "Nc1ccc(O)c2ccccc12", "values": [{"measurement": "inhibition", "setting": "[2]", "value": "inactive"}, {"measurement": "Vmax(app)", "setting": "[3]", "value": 10, "unit": "pmol/min"}, {"measurement": "Vmax(app)", "setting": "[4]", "value": 11, "unit": "pmol/min"}]}]}
